Legend:
[1] = tested on: Arabidopsis plants, construct RHOMA_PPO_wt_tpFNR (SEQ ID NO 123); assay: Tolerance of transgenic T1 Arabidopsis plants to herbicides, greenhouse (Tolerance Factor); assay type: in vivo, Arabidopsis thaliana
[2] = tested on: Arabidopsis plants, construct RHOMA_PPO_wt_tpAMATU_PPO2 (SEQ ID NO 127); assay: as above; assay type: in vivo, Arabidopsis thaliana
[3] = tested on: transgenic Arabidopsis thaliana, transgene SEQ ID NO 121; assay: Herbicide injury evaluation of Arabidopsis plants, greenhouse; assay type: in vivo; conditions: Table 3, scale 0-100
[4] = tested on: Arabidopsis plants, construct hemF_tplAMATU_PPO2 (SEQ ID NO 115); assay: Tolerance of transgenic T1 Arabidopsis plants to herbicides, greenhouse (Tolerance Factor); assay type: in vivo, Arabidopsis thaliana
[5] = tested on: Arabidopsis plants, construct hemG_tplAMATU_PPO2 (SEQ ID NO 118); assay: as above; assay type: in vivo, Arabidopsis thaliana
[6] = tested on: transgenic Arabidopsis thaliana, transgene SEQ ID NO 120; assay: Herbicide injury evaluation of Arabidopsis plants, greenhouse; assay type: in vivo; conditions: Table 4, scale 0-100
[7] = tested on: Arabidopsis plants, construct CHLSP_PPO_wt_tpFNR (SEQ ID NO 128); assay: Tolerance of transgenic T1 Arabidopsis plants to herbicides, greenhouse (Tolerance Factor); assay type: in vivo, Arabidopsis thaliana
[8] = tested on: transgenic Arabidopsis thaliana, transgene SEQ ID NO 119; assay: Herbicide injury evaluation of Arabidopsis plants, greenhouse; assay type: in vivo; conditions: Table 3, scale 0-100
[9] = tested on: transgenic Arabidopsis thaliana, transgene SEQ ID NO 117; assay: as above; assay type: in vivo; conditions: Table 3, scale 0-100
[10] = tested on: Arabidopsis plants, construct hemG_tpsAMATU_PPO2 (SEQ ID NO 119); assay: Tolerance of transgenic T1 Arabidopsis plants to herbicides, greenhouse (Tolerance Factor); assay type: in vivo, Arabidopsis thaliana
[11] = tested on: Arabidopsis plants, construct OPITE_PPO_wt_tpFNR (SEQ ID NO 121); assay: as above; assay type: in vivo, Arabidopsis thaliana
[12] = tested on: Arabidopsis plants, construct RHOMA_PPO_F420V_tpFNR (SEQ ID NO 124); assay: as above; assay type: in vivo, Arabidopsis thaliana
[13] = tested on: Wildtype/non-transgenic Arabidopsis thaliana; assay: Herbicide injury evaluation of Arabidopsis plants, greenhouse; assay type: in vivo; conditions: scale 0-100
[14] = tested on: Arabidopsis plants, construct hemG_tpFNR (SEQ ID NO 117); assay: Tolerance of transgenic T1 Arabidopsis plants to herbicides, greenhouse (Tolerance Factor); assay type: in vivo, Arabidopsis thaliana
[15] = tested on: transgenic Arabidopsis thaliana, transgene SEQ ID NO 118; assay: Herbicide injury evaluation of Arabidopsis plants, greenhouse; assay type: in vivo; conditions: scale 0-100
[16] = tested on: Arabidopsis plants, construct hemF_tpFNR (SEQ ID NO 114); assay: Tolerance of transgenic T1 Arabidopsis plants to herbicides, greenhouse (Tolerance Factor); assay type: in vivo, Arabidopsis thaliana
[17] = tested on: transgenic Arabidopsis thaliana, transgene SEQ ID NO 128; assay: Herbicide injury evaluation of Arabidopsis plants, greenhouse; assay type: in vivo; conditions: Table 3, scale 0-100
[18] = tested on: Arabidopsis plants, construct hemF_tpsAMATU_PPO2 (SEQ ID NO 116); assay: Tolerance of transgenic T1 Arabidopsis plants to herbicides, greenhouse (Tolerance Factor); assay type: in vivo, Arabidopsis thaliana

## C#CCN1C(=O)C(F)(F)Oc2cc(F)c(-n3c(=O)n(C)c(=S)n(C)c3=O)cc21 [Trifludimoxazine, 1,5-dimethyl-6-thioxo-3-(2,2,7-trifluoro-3-oxo-4-(prop-2-ynyl)-3,4-dihydro-2H-benzo[b][1,4]oxazin-6-yl)-1,3,5-triazinane-2,4-dione]
[1]
  Tolerance Factor: 1
[2]
  Tolerance Factor: 1
[3]; SEQ ID NO 121 G, 25 g ai/ha + 1% MSO
  Herbicide injury evaluation 14 days after herbicide treatment: 100
[3]; SEQ ID NO 121 G, 75 g ai/ha + 1% MSO
  Herbicide injury evaluation 14 days after herbicide treatment: 100
[3]; SEQ ID NO 121 G, 150 g ai/ha + 1% MSO
  Herbicide injury evaluation 14 days after herbicide treatment: 100
[3]; SEQ ID NO 121 H, 25 g ai/ha + 1% MSO
  Herbicide injury evaluation 14 days after herbicide treatment: 100
[3]; SEQ ID NO 121 H, 75 g ai/ha + 1% MSO
  Herbicide injury evaluation 14 days after herbicide treatment: 100
[3]; SEQ ID NO 121 H, 150 g ai/ha + 1% MSO
  Herbicide injury evaluation 14 days after herbicide treatment: 100
[4]
  Tolerance Factor: 1
[5]
  Tolerance Factor: 9167
[6]; SEQ ID NO 120 J, 25 g ai/ha + 1% MSO
  Herbicide injury evaluation 14 days after herbicide treatment: 80
[6]; SEQ ID NO 120 J, 75 g ai/ha + 1% MSO
  Herbicide injury evaluation 14 days after herbicide treatment: 94
[6]; SEQ ID NO 120 J, 150 g ai/ha + 1% MSO
  Herbicide injury evaluation 14 days after herbicide treatment: 98
[6]; SEQ ID NO 120 M, 25 g ai/ha + 1% MSO
  Herbicide injury evaluation 14 days after herbicide treatment: 94
[6]; SEQ ID NO 120 M, 75 g ai/ha + 1% MSO
  Herbicide injury evaluation 14 days after herbicide treatment: 98
[6]; SEQ ID NO 120 M, 150 g ai/ha + 1% MSO
  Herbicide injury evaluation 14 days after herbicide treatment: 93
[7]
  Tolerance Factor: 1500
[8]; SEQ ID NO 119 A, 25 g ai/ha + 1% MSO
  Herbicide injury evaluation 14 days after herbicide treatment: 100
[8]; SEQ ID NO 119 A, 75 g ai/ha + 1% MSO
  Herbicide injury evaluation 14 days after herbicide treatment: 100
[8]; SEQ ID NO 119 A, 150 g ai/ha + 1% MSO
  Herbicide injury evaluation 14 days after herbicide treatment: 100
[8]; SEQ ID NO 119 B, 25 g ai/ha + 1% MSO
  Herbicide injury evaluation 14 days after herbicide treatment: 100
[8]; SEQ ID NO 119 B, 75 g ai/ha + 1% MSO
  Herbicide injury evaluation 14 days after herbicide treatment: 100
[8]; SEQ ID NO 119 B, 150 g ai/ha + 1% MSO
  Herbicide injury evaluation 14 days after herbicide treatment: 100
[9]; SEQ ID NO 117 C, 25 g ai/ha + 1% MSO
  Herbicide injury evaluation 14 days after herbicide treatment: 92
[9]; SEQ ID NO 117 C, 75 g ai/ha + 1% MSO
  Herbicide injury evaluation 14 days after herbicide treatment: 93
[9]; SEQ ID NO 117 C, 150 g ai/ha + 1% MSO
  Herbicide injury evaluation 14 days after herbicide treatment: 97
[9]; SEQ ID NO 117 I, 25 g ai/ha + 1% MSO
  Herbicide injury evaluation 14 days after herbicide treatment: 90
[9]; SEQ ID NO 117 I, 75 g ai/ha + 1% MSO
  Herbicide injury evaluation 14 days after herbicide treatment: 99
[9]; SEQ ID NO 117 I, 150 g ai/ha + 1% MSO
  Herbicide injury evaluation 14 days after herbicide treatment: 98
[10]
  Tolerance Factor: 1
[11]
  Tolerance Factor: 9
[12]
  Tolerance Factor: 1
[13]; Table 3, 25 g ai/ha + 1% MSO
  Herbicide injury evaluation 14 days after herbicide treatment: 100
[13]; Table 3, 75 g ai/ha + 1% MSO
  Herbicide injury evaluation 14 days after herbicide treatment: 100
[13]; Table 3, 150 g ai/ha + 1% MSO
  Herbicide injury evaluation 14 days after herbicide treatment: 100
[13]; Table 4, 25 g ai/ha + 1% MSO
  Herbicide injury evaluation 14 days after herbicide treatment: 100
[13]; Table 4, 75 g ai/ha + 1% MSO
  Herbicide injury evaluation 14 days after herbicide treatment: 100
[13]; Table 4, 150 g ai/ha + 1% MSO
  Herbicide injury evaluation 14 days after herbicide treatment: 100
[14]
  Tolerance Factor: 4433
[15]; Table 3, SEQ ID NO 118 Q, 25 g ai/ha + 1% MSO
  Herbicide injury evaluation 14 days after herbicide treatment: 45
[15]; Table 3, SEQ ID NO 118 Q, 75 g ai/ha + 1% MSO
  Herbicide injury evaluation 14 days after herbicide treatment: 50
[15]; Table 3, SEQ ID NO 118 Q, 150 g ai/ha + 1% MSO
  Herbicide injury evaluation 14 days after herbicide treatment: 58
[15]; Table 3, SEQ ID NO 118 R, 25 g ai/ha + 1% MSO
  Herbicide injury evaluation 14 days after herbicide treatment: 20
[15]; Table 3, SEQ ID NO 118 R, 75 g ai/ha + 1% MSO
  Herbicide injury evaluation 14 days after herbicide treatment: 23
[15]; Table 3, SEQ ID NO 118 R, 150 g ai/ha + 1% MSO
  Herbicide injury evaluation 14 days after herbicide treatment: 10
[15]; Table 4, SEQ ID NO 118 Q, 25 g ai/ha + 1% MSO
  Herbicide injury evaluation 14 days after herbicide treatment: 60
[15]; Table 4, SEQ ID NO 118 Q, 75 g ai/ha + 1% MSO
  Herbicide injury evaluation 14 days after herbicide treatment: 63
[15]; Table 4, SEQ ID NO 118 Q, 150 g ai/ha + 1% MSO
  Herbicide injury evaluation 14 days after herbicide treatment: 65
[15]; Table 4, SEQ ID NO 118 R, 25 g ai/ha + 1% MSO
  Herbicide injury evaluation 14 days after herbicide treatment: 18
[15]; Table 4, SEQ ID NO 118 R, 75 g ai/ha + 1% MSO
  Herbicide injury evaluation 14 days after herbicide treatment: 28
[15]; Table 4, SEQ ID NO 118 R, 150 g ai/ha + 1% MSO
  Herbicide injury evaluation 14 days after herbicide treatment: 50
[16]
  Tolerance Factor: 1
[17]; SEQ ID NO 128 D, 25 g ai/ha + 1% MSO
  Herbicide injury evaluation 14 days after herbicide treatment: 85
[17]; SEQ ID NO 128 D, 75 g ai/ha + 1% MSO
  Herbicide injury evaluation 14 days after herbicide treatment: 93
[17]; SEQ ID NO 128 D, 150 g ai/ha + 1% MSO
  Herbicide injury evaluation 14 days after herbicide treatment: 93
[17]; SEQ ID NO 128 E, 25 g ai/ha + 1% MSO
  Herbicide injury evaluation 14 days after herbicide treatment: 85
[17]; SEQ ID NO 128 E, 75 g ai/ha + 1% MSO
  Herbicide injury evaluation 14 days after herbicide treatment: 95
[17]; SEQ ID NO 128 E, 150 g ai/ha + 1% MSO
  Herbicide injury evaluation 14 days after herbicide treatment: 97
[18]
  Tolerance Factor: 1
